# Measured values: patent US9585823B2, “Personal care compositions comprising a multi-active system for down regulating cytokines irritation” (The Gillette Company, priority 2010, dated 2017)
# Tested on: hTERT keratinocytes
# Assay type: cell-based
# Protocol: To ensure proper levels of the biological active molecules for the in vitro study, dilution studies were conducted and ATP was analyzed for the highest non-cytotoxic concentration. Olivem 460 (lot LG0833 from B&T, Milan Italy) at a level of 0.000156% and SymRelief (from Symrise) at a level of 0.0625% were determined to be appropriate respective concentrations for this study. ATP analysis is described below.
# ATP analysis was conducted using Cell Titer-Glo. The CellTiter-Glo Luminescent Cell Viability Assay was obtained from Promega Corporation (Madison, Wis.). This assay is a homogeneous method for determining the number of viable cells in culture based on quantitation of ATP present, signaling the presence of metabolically active cells. After the final treatment and supernatants collected, the CellTiter-Glo reagent was added. The reagent was then transferred to a BD Falcon (Franklin Lakes, N.J.) Microtest 96-well Assay Plate (black, flat bottom, reference 353945, lot 041151). Luminescence was read on a Perkin Elmer Fluorimeter (Wallac Envision 2101 Multilabel Reader). Relative luminescence units were plotted in percent control versus treatment concentration.
substance,measurement,value
Bisabolol (and) Zingiber Officinale Root Extract [SymRelief],highest non-cytotoxic concentration (level determined appropriate for the study),0.0625%
Sodium PEG-7 Olive Oil Carboxylate [Olivem 460],highest non-cytotoxic concentration (level determined appropriate for the study),0.000156%
